According to patent US9822089B2, “R type of resveratrol dimer, preparation process therefor and purpose thereof in lowering blood sugar level” (priority 2013, dated 2017):

Legend:
[1] = tested on: sucrose-induced high blood sugar level of a mouse; assay: orally-administered sucrose tolerance test for normal mice; assay type: in vivo; conditions: for area under the sucrose tolerance test curve: FIG. 1, negative control group 21.0 mmol h/L; for blood glucose-lowering rate: compared with the negative control group; for lowering of sucrose-induced high blood sugar level of a mouse (in words): sucrose load; for Blood sugar concentration: drug 0.33 mg/ml suspension, 0.3 ml per 10 g intragastric 30 min before, x ± s, n = 10
Experimental: A mean body weight of mice was 22 g to 25 g. The mice were randomly divided into 6 groups, and each group included 10 animals. Each group of animals was intragastrically administered with a drug after 12 hours of fasting.
For a normal control group, a 0.5% CMC-Na solution whose volume is equal to that of a positive control group was administered.
For a negative control group, a 0.5% CMC-Na solution whose volume is equal to that of a positive control group was administered.
For an acarbose group, a 0.33 mg/ml acarbose suspension that was prepared by using a 0.5% CMC-Na solution was administered at a dosage of 0.3 ml per 10 g of weight.
For a TVN racemate group, a 0.33 mg/ml TVN racemate suspension that was prepared by using a 0.5% CMC-Na solution was administered at a dosage of 0.3 ml per 10 g of weight.
For a (S,S)-TVN group, a 0.33 mg/ml (S,S)-TVN suspension that was prepared by using a 0.5% CMC-Na solution was administered tat a dosage of 0.3 ml per 10 g of weight.
For a (R,R)-TVN group, a 0.33 mg/ml (R,R)-TVN suspension that was prepared by using a 0.5% CMC-Na solution was administered at a dosage of 0.3 ml per 10 g of weight.
After 30 min, animals in the groups other than the normal group were intragastrically administered with a 6.7% sucrose solution at a dosage of 0.3 ml per 10 g of weight, and animals in the normal group were intragastrically administered with water whose volume is equal to that of the sucrose solution. Orbital blood sampling was separately performed at four time points, namely 0 h, 0.5 h, 1 h, and 2 h after intragastric administration of the sucrose solution to the animals. Then, 2 μL of blood serum was taken after centrifugation and added into a 96-pore plate. Thereafter, 200 μL of a reagent from a glucose assay kit was further added thereinto and a 505 nm micro-plate reader was used to measure a value of absorbance. A blood sugar concentration was obtained from a standard curve. Refer to the table below:
All data was represented by using a mean value±a standard deviation (x±s). SPSS11.5 software was used for analysis, and data comparison was performed by means of a one-way analysis of variance. P<0.05 represents that there was a significant difference; and P<0.01 represents that there was an extremely significant difference.

alpha-glucosidase = conditions: in vitro; multiple of the activity of acarbose; cited from earlier work
[2] = 0.5 h after intragastric sucrose

| Compound | area under the sucrose tolerance test curve [1] | blood glucose-lowering rate ([1]; at 0.5 h) | blood glucose-lowering rate ([1]; at 1 h) | lowering of sucrose-induced high blood sugar level of a mouse (in words) [1] | Blood sugar concentration ([1]; 0 h after intragastric sucrose) | Blood sugar concentration [1, 2] | Blood sugar concentration ([1]; 1 h after intragastric sucrose) | Blood sugar concentration ([1]; 2 h after intragastric sucrose) | alpha-glucosidase inhibitory activity relative to acarbose (alpha-glucosidase) |
| --- | --- | --- | --- | --- | --- | --- | --- | --- | --- |
| Oc1ccc([C@H]2Oc3ccc(/C=C/c4cc(O)cc(O)c4)cc3[C@@H]2c2cc(O)cc(O)c2)cc1 [(S,S)-TVN, (7S,8S)-trans-δ-viniferin] | 20.9 mmol·h/L | 0.08% | 3.01% | cannot significantly lower a sucrose-induced high blood sugar level of a mouse | – | – | – | – | – |
| C[C@H]1O[C@H](O[C@H]2[C@H](O)[C@@H](O)[C@@H](O[C@H]3[C@H](O)[C@@H](O)C(O)O[C@@H]3CO)O[C@@H]2CO)[C@H](O)[C@@H](O)[C@@H]1N[C@H]1C=C(CO)[C@@H](O)[C@H](O)[C@H]1O (some centres unmarked) [Acarbose, acarbose] | – | 18.97% | 21.66% | – | 7.94 ± 1.25 mmol/L | 9.74 ± 1.45 mmol/L | 8.32 ± 1.50 mmol/L | 8.54 ± 1.04 mmol/L | – |
| Oc1ccc([C@@H]2Oc3ccc(/C=C/c4cc(O)cc(O)c4)cc3[C@H]2c2cc(O)cc(O)c2)cc1 [(R,R)-TVN, (7R,8R)-trans-δ-viniferin] | 16.7 mmol·h/L | 30.20% | 22.79% | can significantly lower a sucrose-induced high blood sugar level of a mouse, and has a better effect than the TVN racemate | – | – | – | – | – |
| Oc1ccc(C2Oc3ccc(/C=C/c4cc(O)cc(O)c4)cc3C2c2cc(O)cc(O)c2)cc1 (racemic) [TVN racemate, trans-δ-viniferin] | 18.3 mmol·h/L | 13.98% | 14.60% | has a hypoglycemic activity between hypoglycemic activities of the both | 7.75 ± 1.57 mmol/L | 10.34 ± 1.75 mmol/L | 9.07 ± 1.55 mmol/L | 8.83 ± 1.46 mmol/L | 254 times |
